Emax and EC50 data for 25 molecules are collected here from patent US8609669B2, “Potassium channel modulators” (AbbVie Inc., priority 2010, dated 2013).

A word on the EC50: it is the concentration giving half of the maximal effect. The low end stands for an effect from little substance, the high end for a need for much substance.

The test deals with T1, KCNQ 2/3 channels (HEK293 cells stably expressing human KCNQ2 and KCNQ3 subunits) (Homo sapiens, UniProt O43525+O43526).
T1 construct: expressed in transfected cells; host or cells: HEK293
Description: KCNQ2/3 channel activation, thallium flux FLIPR assay (BTC-AM dye). It is filed as cell-based. To be noted: for Emax: HEK293, maximum response relative to response of retigabine at 10 μM (set at 100%), read-out: Max. %; for EC50: HEK293 cells expressing human KCNQ2 and KCNQ3, FLIPR thallium flux. As for the experimental part: The following example describes the assay that can be used to identify compounds that activate KCNQ 2/3 channels.
HEK293 cells stably expressing human KCNQ2 and KCNQ3 subunits were seeded in 96-well, black-walled, clear-bottomed, poly-D-lysine coated plates (BD Biosciences, Bedford, Mass.) at a density of 1×10^5 cells per well 24 hours before the assay. On the assay day, BTC-AM dye (Invitrogen, Carlsbad, Calif.) was loaded into the cells by replacing the cell culture medium with 100 μL/well of 4 μM dye in DPBS. Dye loading was allowed to proceed for 2 hours at room temperature and then cells were washed twice in 100 μL/well of assay buffer (in mM: 10 HEPES pH 7.3, 5 glucose, 140 Na-gluconate, 2.5 K-gluconate, 3.6 Ca-gluconate, 2 MgSO4, 0.1 Ouabain) to remove unloaded dye. Cells were incubated in 50 μL of assay buffer before loading onto a FLIPR system (Molecular Devices, Sunnyvale, Calif.). Various concentrations of compounds to be assayed were added to the cells in 50 μL of assay buffer and incubated for 4 minutes. The fluorescence signal was initiated by adding 100 μL of assay buffer containing 6 mM TlNO3 and 10 mM K2SO4. Fluors were excited using the 488-nm line of an argon laser and emission was filtered using a 540±30 nm bandpass filter. Fluorescent signals were recorded for 3 minutes. Responses over baseline values were plotted versus concentrations of test compounds to obtain an EC50 value. The maximum response for each test compound was determined relative to the response produced at 10 μM by retigabine. The maximum response of retigabine at 10 μM was set at 100%.

Consider `O=C(Cc1ccncc1)Nc1nn2cccnc2c1-c1ccc(Cl)cc1` [Example 102, N-[3-(4-chlorophenyl)pyrazolo[1,5-a]pyrimidin-2-yl]-2-(pyridin-4-yl)acetamide], for which the Emax amounted to 23% and the EC50 was above 10000 nM.
Taken in the same sequence, the figures for `Cc1cc(C)n2nc(NC(=O)CC3CCCCC3)c(-c3ccc(F)c(C)c3)c2n1` [Example 34, 2-cyclohexyl-N-[3-(4-fluoro-3-methylphenyl)-5,7-dimethylpyrazolo[1,5-a]pyrimidin-2-yl]acetamide] were 166% and below 100 nM.
The matching figures for `Cc1ccnc2c(Cc3ccc(F)cc3)c(NC(=O)CCC3CCCC3)nn12` [Example 71, 3-cyclopentyl-N-[3-(4-fluorobenzyl)-7-methylpyrazolo[1,5-a]pyrimidin-2-yl]propanamide]: 141% and below 100 nM.
Taken in the same sequence, the figures for `CC(C)(C)CC(=O)Nc1nn2cccnc2c1-c1cccnc1` [Example 110, 3,3-dimethyl-N-[3-(pyridin-3-yl)pyrazolo[1,5-a]pyrimidin-2-yl]butanamide] were 8% and above 10000 nM.
Consider `Cc1cc(C)n2nc(NC(=O)CCC3CCCC3)c(-c3ccc(C(F)(F)F)cc3)c2n1` [Example 61, 3-cyclopentyl-N-{5,7-dimethyl-3-[4-(trifluoromethyl)phenyl]pyrazolo[1,5-a]pyrimidin-2-yl}propanamide], for which the Emax was determined as 152% and the EC50 was in the range of 100 to 500 nM.
Regarding `CC(C)(C)CC(=O)Nc1nn2cccnc2c1/C=C/c1ccc(Cl)cc1` [Example 111, N-{3-[(E)-2-(4-chlorophenyl)vinyl]pyrazolo[1,5-a]pyrimidin-2-yl}-3,3-dimethylbutanamide], the Emax was 59% and the 50% effective concentration (EC50) was above 10000 nM.
Turning to `Cc1cnc2c(-c3ccccc3)c(NC(=O)Cc3ccc(Cl)cc3)nn2c1` [Example 93, 2-(4-chlorophenyl)-N-(6-methyl-3-phenylpyrazolo[1,5-a]pyrimidin-2-yl)acetamide], the Emax was 131% and the half-maximal effective concentration (EC50) is 100 to 500 nM.
The matching figures for `CC(C)(C)c1c(NC(=O)CC(C)(C)c2ccccc2)nn2cccnc12` [Example 126, N-(3-tert-butylpyrazolo[1,5-a]pyrimidin-2-yl)-3-methyl-3-phenylbutanamide]: 133% and 100 to 500 nM.
Regarding `CC(C)(C)c1c(NC(=O)CC2CCCCC2)nn2cccnc12` [Example 130, N-(3-tert-butylpyrazolo[1,5-a]pyrimidin-2-yl)-2-cyclohexylacetamide], the Emax was determined as 131% and the EC50 was 100 to 500 nM.
The matching figures for `CC(C)c1ccc(CC(=O)Nc2nn3cccnc3c2C(C)(C)C)cc1` [Example 166, N-(3-tert-butylpyrazolo[1,5-a]pyrimidin-2-yl)-2-(4-isopropylphenyl)acetamide]: 154% and 500 to 1000 nM.
Taken in the same sequence, the figures for `CC(C)c1c(NC(=O)COC2CCCC2)nn2cccnc12` [Example 133, 2-(cyclopentyloxy)-N-(3-isopropylpyrazolo[1,5-a]pyrimidin-2-yl)acetamide] were 7% and above 10000 nM.
The matching figures for `Cc1cnc2c(-c3ccc(F)c(C)c3)c(NC(=O)CS(=O)(=O)C3CCCC3)nn2c1` [Example 174, 2-(cyclopentylsulfonyl)-N-[3-(4-fluoro-3-methylphenyl)-6-methylpyrazolo[1,5-a]pyrimidin-2-yl]acetamide]: 67% and above 10000 nM.
As for `Cc1cc(C)n2nc(NC(=O)CCC3CCCCC3)c(CC(C)(C)C)c2n1` [Example 14, 3-cyclohexyl-N-[3-(2,2-dimethylpropyl)-5,7-dimethylpyrazolo[1,5-a]pyrimidin-2-yl]propanamide], the Emax was 182% and the EC50 was below 100 nM.
On to `Cc1cc(-c2c(NC(=O)Cc3ccc(F)cc3)nn3cccnc23)ccc1Cl` [Example 45, N-[3-(4-chloro-3-methylphenyl)pyrazolo[1,5-a]pyrimidin-2-yl]-2-(4-fluorophenyl)acetamide], for which the Emax is 95% and the EC50 is above 10000 nM.
Take `CC(C)(C)c1c(NC(=O)Cc2ccc(Cl)cc2)nn2cccnc12` [Example 152, N-(3-tert-butylpyrazolo[1,5-a]pyrimidin-2-yl)-2-(4-chlorophenyl)acetamide]: the Emax amounted to 191% and the half-maximal effective concentration (EC50) fell in the range of 100 to 500 nM.
For the molecule `Cc1cc(-c2c(NC(=O)CCC3CCCC3)nn3c(C)ccnc23)ccc1Cl` [Example 46, N-[3-(4-chloro-3-methylphenyl)-7-methylpyrazolo[1,5-a]pyrimidin-2-yl]-3-cyclopentylpropanamide], the Emax amounted to 117% and the EC50 fell in the range of 100 to 500 nM.
Taken in the same sequence, the figures for `Cc1cnc2c(C(C)(C)C)c(NC(=O)CCC3CCCCC3)nn2c1` [Example 178, N-(3-tert-butyl-6-methylpyrazolo[1,5-a]pyrimidin-2-yl)-3-cyclohexylpropanamide] were 158% and below 100 nM.
In the case of `Cc1cc(C)n2nc(NC(=O)CC3CCCCC3)c(-c3cccc(F)c3)c2n1` [Example 86, 2-cyclohexyl-N-[3-(3-fluorophenyl)-5,7-dimethylpyrazolo[1,5-a]pyrimidin-2-yl]acetamide], the Emax came to 138% and the EC50 is below 100 nM.
Taken in the same sequence, the figures for `Cc1cnc2c(-c3ccc(F)c(C)c3)c(NC(=O)CC34CC5CC(CC(C5)C3)C4)nn2c1` [Example 151, 2-(adamantan-1-yl)-N-[3-(4-fluoro-3-methylphenyl)-6-methylpyrazolo[1,5-a]pyrimidin-2-yl]acetamide] were 179% and below 100 nM.
As to `CC(C)(C)c1c(NC(=O)CCC2CCCCC2)nn2cccnc12` [Example 132, N-(3-tert-butylpyrazolo[1,5-a]pyrimidin-2-yl)-3-cyclohexylpropanamide], the Emax was found to be 142% and the EC50 is below 100 nM.
Taken in the same sequence, the figures for `Cc1ccnc2c(CC(C)(C)C)c(NC(=O)CCC3CCCCC3)nn12` [Example 37, 3-cyclohexyl-N-[3-(2,2-dimethylpropyl)-7-methylpyrazolo[1,5-a]pyrimidin-2-yl]propanamide] were 166% and below 100 nM.
Regarding `Cc1cc(C)n2nc(NC(=O)CC3CCCCC3)c(-c3ccc(Cl)cc3)c2n1` [Example 42, N-[3-(4-chlorophenyl)-5,7-dimethylpyrazolo[1,5-a]pyrimidin-2-yl]-2-cyclohexylacetamide], the Emax turned out to be 142% and the EC50 fell in the range of 100 to 500 nM.
Taken in the same sequence, the figures for `CC(C)(C)c1c(NC(=O)C[C@@H]2CC[C@H]3C[C@@H]2C3(C)C)nn2cccnc12` [Example 171, N-(3-tert-butylpyrazolo[1,5-a]pyrimidin-2-yl)-2-[(1S,2S,5S)-6,6-dimethylbicyclo[3.1.1]hept-2-yl]acetamide] were 138% and below 100 nM.
`CC(C)(C)OC(=O)Nc1nn2cccnc2c1-c1ccc(OC(F)(F)F)cc1` [Example 148, tert-butyl {3-[4-(trifluoromethoxy)phenyl]pyrazolo[1,5-a]pyrimidin-2-yl}carbamate]: the Emax was found to be 20% and the EC50 was above 10000 nM.
With `Cc1ccnc2c(-c3ccc(C(F)(F)F)cc3)c(NC(=O)CCC3CCCCC3)nn12` [Example 79, 3-cyclohexyl-N-{7-methyl-3-[4-(trifluoromethyl)phenyl]pyrazolo[1,5-a]pyrimidin-2-yl}propanamide], the Emax turned out to be 122% and the EC50 fell in the range of 100 to 500 nM.
